As usually defined, the EC50 is the concentration at which the effect is half-maximal. The term EC90 denotes the concentration at which the effect reaches the 90% level.

This experiment concerns Dengue-2 (Strain New Guinea C). Briefly: viral yield assay against Dengue-2 in Vero cells. It is filed as cell-based. As to conditions: Dengue virus; for EC90: read-out: EC90 Yield Den-2. On the procedure: Compounds that were active in the primary screen were also tested for activity in viral yield assays. […] Vero cells in 12-well plates were infected with dengue-2 virus at a multiplicity of infection (MOI) of 0.1, treated with compound (or DMSO as a control), incubated at 37° C., harvested 48 hours post infection and titered on Vero cells as described above. The EC50 was calculated through ExcelFit. Those compounds with activity below 1 μM are indicated with “A”, those with activity between 1 and 10 μM are indicated with “B”, those with activity between 10 and 25 μM with “C”, and those with activity above 25 μM are indicated with “D”.

Setting [1] is: Vero cells, MOI 0.1, harvested 48 hours post infection, read-out: Activity (anti-dengue 2 viral activity, EC50).
Where [2] appears, read: viral yield assay, Vero cells, read-out: EC50 Yield Den-2.

Where two headings read alike, the source gives them in different places.

On to `CCN(CC)S(=O)(=O)c1ccc(NC(=O)Cn2cnc3sccc3c2=O)cc1` [Compound 5, N-(4-Diethylsulfamoyl-phenyl)-2-(4-oxo-4H-thieno[2,3-d]pyrimidin-3-yl)-acetamide], for which the EC50 under setting [1] lay in the range of 1 to 10 µM.
Regarding `CCN(CC)S(=O)(=O)c1ccc(NC(=O)Cn2cnc3sc(C)c(C)c3c2=O)cc1` [Compound 10, N-(4-Diethylsulfamoyl-phenyl)-2-(5,6-dimethyl-4-oxo-4H-thieno[2,3-d]pyrimidin-3-yl)-acetamide], the EC50 runs as follows: under setting [1], 1 to 10 µM; under setting [2], 1.25 µM. Besides, the EC90 (viral yield assay, Vero cells) is over 50 µM.
Taken in the same sequence, the figures for `CCc1cc2c(=O)n(CC(=O)Nc3ccc(S(=O)(=O)N(CC)CC)cc3)cnc2s1` [Compound 11, N-(4-Diethylsulfamoyl-phenyl)-2-(6-ethyl-4-oxo-4H-thieno[2,3-d]pyrimidin-3-yl)-acetamide] were 1 to 10 µM, 4.9 µM and over 50 µM.
For `CCN(CC)S(=O)(=O)c1ccc2c(c1)CCN2C(=O)Cn1cnc2ccccc2c1=O` [Compound 17, 1-[2-(4-Oxo-4H-quinazolin-3-yl)-acetyl]-2,3-dihydro-1H-indole-5-sulfonic acid diethylamide], the EC50 is, setting by setting: under setting [1], 1 to 10 µM; under setting [2], 5.1 µM. Moreover, the EC90 (viral yield assay, Vero cells) turned out to be 12.1 µM.
For the compound `CC1CCCC(C)N1S(=O)(=O)c1ccc(NC(=O)Cn2cnc3ccccc3c2=O)cc1` (stereo not drawn) [Compound 18, N-[4-(2,6-Dimethyl-piperidine-1-sulfonyl)-phenyl]-2-(4-oxo-4H-quinazolin-3-yl)-acetamide], the EC50 under setting [1] lay within 1 to 10 µM.
For the compound `CC1CC(C)CN(S(=O)(=O)c2ccc(NC(=O)Cn3cnc4ccccc4c3=O)cc2)C1` (stereo not drawn) [Compound 19, N-[4-(3,5-Dimethyl-piperidine-1-sulfonyl)-phenyl]-2-(4-oxo-4H-quinazolin-3-yl)-acetamide], the 50% effective concentration (EC50) under setting [1] lay within 1 to 10 µM.
On to `CCN(CC)S(=O)(=O)c1ccc(OC)c(NC(=O)Cn2nnc3ccccc3c2=O)c1` [Compound 20, N-(5-Diethylsulfamoyl-2-methoxy-phenyl)-2-(4-oxo-4H-benzo[d][1,2,3]triazin-3-yl)-acetamide], for which the EC50 was 1.3 µM (Vero, read-out: EC50 Yield Den-2) and 1 to 10 µM under setting [1]. For the same compound, the EC90 (Vero) stood at 20 µM.
In the case of `CCN(CC)S(=O)(=O)c1ccc(NC(=O)Cn2cnc3ccsc3c2=O)cc1` [Compound 22, N-(4-Diethylsulfamoyl-phenyl)-2-(4-oxo-4H-thieno[3,2-d]pyrimidin-3-yl)-acetamide], under setting [1], the EC50 lay in the range of 10 to 25 µM.
Same read-out and setting: for `CCN(CC)S(=O)(=O)c1ccc(NC(=O)Cn2cnc3cc(Cl)ccc3c2=O)cc1` [Compound 23, 2-(7-Chloro-4-oxo-4H-quinazolin-3-yl)-N-(4-diethylsulfamoyl-phenyl)-acetamide] the value was 10 to 25 µM; for `CCN(CC)S(=O)(=O)c1ccc(NC(=O)Cn2cnc3c(oc4ccccc43)c2=O)cc1` [Compound 24, N-(4-Diethylsulfamoyl-phenyl)-2-(4-oxo-4H-benzo [4,5]furo[3,2-d]pyrimidin-3-yl)-acetamide], 10 to 25 µM.
Take `CCN(CC)S(=O)(=O)c1ccc(OC(C)C)c(NC(=O)CCn2nnc3ccccc3c2=O)c1` [Compound 25, N-(5-Diethylsulfamoyl-2-isopropoxy-phenyl)-3-(4-oxo-4H-benzo[d][1,2,3]triazin-3-yl)-propionamide]: the concentration for a half-maximal effect (EC50) under setting [1] lay in the range of 10 to 25 µM.
Regarding `CCN(CC)S(=O)(=O)c1ccc(NC(=O)Cn2cnc3c(C)cccc3c2=O)cc1` [Compound 26, N-(4-Diethylsulfamoyl-phenyl)-2-(8-methyl-4-oxo-4H-quinazolin-3-yl)-acetamide], under setting [1], the EC50 lay within 10 to 25 µM.
Regarding `CCN(CC)S(=O)(=O)c1ccc(OC)c(NC(=O)CCn2nnc3ccccc3c2=O)c1` [Compound 27, N-(5-Diethylsulfamoyl-2-methoxy-phenyl)-3-(4-oxo-4H-benzo[d][1,2,3]triazin-3-yl)-propionamide], the EC50 under setting [1] lay within 10 to 25 µM.

Values taken from US9353051B2, “Antiviral drugs for treatment or prevention of dengue infection” (Siga Technologies Inc., priority 2007, dated 2016).
